Data: PMC8003416, “Modulation of Human Phenylalanine Hydroxylase by 3-Hydroxyquinolin-2(1H)-One Derivatives” (Biomolecules, 2021)

Target: T1, human phenylalanine hydroxylase (hPAH) (Homo sapiens, UniProt P00439)
T1 construct: Recombinant full-length wild-type (WT) hPAH was expressed in E. coli Top10 cells in fusion with a hexa-histidyl peptide; made in house; host or cells: E. coli Top10
T1 sequence (P00439 1-452): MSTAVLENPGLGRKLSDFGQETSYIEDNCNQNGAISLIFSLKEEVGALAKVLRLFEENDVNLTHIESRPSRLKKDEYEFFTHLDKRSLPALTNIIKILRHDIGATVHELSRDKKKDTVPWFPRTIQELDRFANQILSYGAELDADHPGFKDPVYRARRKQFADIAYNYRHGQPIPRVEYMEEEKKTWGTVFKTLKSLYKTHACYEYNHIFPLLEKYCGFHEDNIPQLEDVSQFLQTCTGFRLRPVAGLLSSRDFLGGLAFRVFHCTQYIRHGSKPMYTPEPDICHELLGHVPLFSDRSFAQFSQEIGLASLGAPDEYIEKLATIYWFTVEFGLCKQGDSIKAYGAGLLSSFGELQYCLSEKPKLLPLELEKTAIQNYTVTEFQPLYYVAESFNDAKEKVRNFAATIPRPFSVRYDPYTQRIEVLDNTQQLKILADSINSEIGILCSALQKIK
Assay: Differential scanning fluorimetry (thermal denaturation)
Format: binding
Conditions: for Tm1 (regulatory domain) / Tm2 (catalytic domain): 100 μM compound in 1% DMSO; for Tm1 (regulatory domain): control 43.4 ± 0.6; for Tm2 (catalytic domain): control 53.5 ± 0.4; for ΔTm1 (regulatory domain) / ΔTm2 (catalytic domain): 100 μM compound vs 1% DMSO control, * S.D. < 0.01; for effect on thermal stability of regulatory and catalytic domains (|ΔTm| ≥ 2 °C): 100 μM compound
Procedure: Thermal denaturation profiles of recombinant hPAH were obtained by differential scanning fluorimetry (DSF) in a C1000 Touch thermal cycler equipped with a CFX96 optical reaction module (Bio-Rad; Hercules, CA, USA) as previously described. Briefly, DSF assays (n = 3) were performed using 100 μg/mL hPAH tetramers (final concentration of 0.45 μM of tetramer), SYPRO Orange (5000-fold commercially available stock solution; Invitrogen; Carlsbad, CA, USA) at a 2.5-x final concentration and ramping the temperature from 20 to 90 °C, at 1 °C/min. Fluorescence data were acquired using the FRET channel. Data were processed using CFX Manager Software V3.0 (Bio-Rad) and the GraphPad Prism. Temperature scan curves were fitted to a biphasic dose–response function and the Tm values were obtained from the midpoint of the first (Tm1) and second transitions (Tm2) corresponding, respectively, to the thermal denaturation of the regulatory and catalytic domains. The Tm values in the presence of 3HQ were compared to those obtained in the presence of 1% DMSO (vehicle control) and a change in the Tm was considered significant when the |ΔTm| ≥ 2 °C [22].

Structure (SMILES)	Tm1 (regulatory domain) [°C]	Tm2 (catalytic domain) [°C]	ΔTm1 (regulatory domain)	ΔTm2 (catalytic domain)	effect on thermal stability of regulatory and catalytic domains (|ΔTm| ≥ 2 °C)
O=C(c1c(O)c(=O)[nH]c2ccc(OC(F)(F)F)cc12)N1CCCC1 [Compound 15]	44.5 ± 0.8	53.3 ± 0.3	+1.1 ± 0.02 °C	-0.2 ± 0.01 °C	–
O=C(c1ccccc1)c1c(O)c(=O)[nH]c2ccc(OC(F)(F)F)cc12 [Compound 20]	44.2 ± 0.1	53.8 ± 0.1	+0.8± 0.01 °C	+0.31± 0.01 °C	–
O=C(c1c(O)c(=O)[nH]c2ccc(OC(F)(F)F)cc12)N1CCCCC1 [Compound 16]	45.0 ± 1.9	53.2 ± 0.8	+1.7 ± 0.07 °C	-0.3 ± 0.01 °C	–
CC(CCc1ccccc1)OC(=O)c1c(O)c(=O)[nH]c2ccc(OC(F)(F)F)cc12 (stereo not drawn) [Compound 19]	33.0 ± 0.3	35.5 ± 0.1	-10.4 ± 0.09 °C	–	destabilized the regulatory and catalytic domains
CN(Cc1ccccc1)C(=O)c1c(O)c(=O)[nH]c2ccc(OC(F)(F)F)cc12 [Compound 7]	43.3 ± 0.1	53.7 ± 0.1	–	+0.2 ± 0.01 °C	–
O=C(Nc1ccccc1)c1c(O)c(=O)[nH]c2ccc(OC(F)(F)F)cc12 [Compound 5]	38.7 ± 0.2	42.3 ± 0.2	-4.7 ± 0.02 °C	-11.2 ± 0.05 °C	destabilized the regulatory and catalytic domains
CC(C)(C)OC(=O)c1c(O)c(=O)[nH]c2ccc(OC(F)(F)F)cc12 [Compound 17]	44.6 ± 0.2	53.7 ± 0.2	+1.2 ± 0.01 °C	+0.2 ± 0.01 °C	–
O=C(NCc1ccccc1)c1c(O)c(=O)[nH]c2ccc(OC(F)(F)F)cc12 [Compound 6]	42.5 ± 0.2	53.0 ± 0.1	-0.9 ± 0.01 °C	-0.5 ± 0.01 °C	–
CC(OC(=O)c1c(O)c(=O)[nH]c2ccc(OC(F)(F)F)cc12)c1ccccc1 (stereo not drawn) [Compound 18]	40.0 ± 1.0	44.0 ± 1.4	–	-9.6 ± 0.31 °C	destabilized the regulatory and catalytic domains
